Ends that are not written are not given here.
Legend:
hRBCs = conditions: human erythrocytes, 1 h at 37° C.
cRBCs = test: Haemolytic activity, chicken erythrocytes; type: cell-based; conditions: 1 h at 37° C.

Substance	Toxicity Haemolysis (hRBCs) (hRBCs)	Toxicity Haemolysis (cRBCs) (cRBCs)
FGRFLRKIRRFRPK [CMAP(2-15), FGRFLRKIRRFRPK]	−− (<5% dead cells)	–
FLRKIRRFRPK [CMAP(5-15), FLRKIRRFRPK]	− (<25% dead cells)	–
GRFLRKIRRFRPK [CMAP(3-15), GRFLRKIRRFRPK]	−− (<5% dead cells)	–
RFGRFLRKIR [CMAP(l-l0), RFGRFLRKIR]	−− (<5% dead cells)	–
RFGRFLRKIRR [CMAP(l-ll), RFGRFLRKIRR]	+/− (>25% dead cells)	–
RFGRFLRKIRRF [CMAP(1-12), RFGRFLRKIRRF]	−− (<5% dead cells)	–
RFGRFLRKIRRFR [CMAP(1-13), RFGRFLRKIRRFR]	−− (<5% dead cells)	–
RFGRFLRKIRRFRPK [CMAP(1-15), RFGRFLRKIRRFRPK]	−− (<5% dead cells)	− (<25% dead cells)
RFGRFLRKIRRFRPKVTITIQ [CMAP1-21]	–	− (<25% dead cells)
RFGRFLRKIRRFRPKVTITIQGSARF [CMAP26]	++ (>75% dead cells)	–
RFGRFLRKIRRFRPKVTITIQGSARF-NH2 [CMAP26-NH2, reference compound]	–	+/− (>25% dead cells)
RFGRFLRKIRRFRPKVTITIQGSARFG [CMAP27, reference compound]	− (<25% dead cells)	–
RFGRLLRKIRRFRPK [CMAP(1-15) (F5→L), RFGRLLRKIRRFRPK]	− (<25% dead cells)	–
RFGRWLRKIRRFRPK [CMAP(1-15) (F5→W), RFGRWLRKIRRFRPK]	−− (<5% dead cells)	–
RFLRKIRRFRPK [CMAP(4-15), RFLRKIRRFRPK]	+/− (>25% dead cells)	–
RLGRFLRKIRRFRPK [CMAP(1-15) (F2→L), RLGRFLRKIRRFRPK]	− (<25% dead cells)	–
RLGRLLRKIRRLRPK [CMAP(1-15) (3xF→L), RLGRLLRKIRRLRPK]	− (<25% dead cells)	–
RWGRFLRKIRRFRPK [CMAP(1-15) (F2→W), RWGRFLRKIRRFRPK]	−− (<5% dead cells)	–
RWGRWLRKIRRWRPK [CMAP(1-15) (3xF→W), RWGRWLRKIRRWRPK]	− (<25% dead cells)	–
